The subject of one experiment is warm renal ischemia. In words: Warm ischemic injury of the rat kidney (renal vascular resistance). The class given is in vivo, Male Sprague-Dawley rats. To be noted: following 60 minutes of warm ischemic injury, recorded as mm mercury/ml fluid/gram of tissue, control approximately 60, uninjured 43-44. The method, then:
Male Sprague-Dawley rats were stress conditioned and subjected to warm ischemic injury using methods similar to those previously described in Perdrizet et al., supra. The non-treated control animals underwent 60 minutes of occlusion of the renal artery at 35-37° C. as an ischemic insult. Following the ischemic injury, flow was reestablished in the kidney and vascular resistance of the kidney was measured. To measure renal vascular resistance, a syringe system was attached to the renal artery, to give a constant flow rate of approximately 0.5 cc/minute. Since there was a constant flow rate, it was possible to measure the pressure generated in the syringe. The higher the pressure, the greater the resistance. Renal vascular resistance was recorded as mm mercury/ml fluid/gram of tissue.

The next experiment has as its system spinal cord ischemia. Briefly: Acute spinal cord ischemia in the rabbit (aortic occlusion, neurologic function after reperfusion). The experiment is classed as in vivo, New Zealand white rabbits. Conditions: 0.15 mg per kilogram subcutaneous, sixteen hours prior to 20 minutes aortic occlusion at 37° C., evaluated 24 hours after reperfusion, four animals. From the text: New Zealand white rabbits were stress conditioned and subjected to spinal cord ischemia using methods similar to those previously described in Perdrizet et al., “Stress conditioning: A novel approach to organ preservation”, Current Surgery, 46(1): 23-26 (January-February 1989), the contents of which are incorporated herein by reference in their entirety. The rabbits were subjected to spinal cord ischemia by occlusion of the infrarenal-abdominal aorta as an ischemic insult to the spinal cord, for 20 minutes at 37° C. The occlusion was then removed and blood flow re-established to the infra-renal aorta. Neurological function of the lower extremities was evaluated 24 hours after reperfusion. Four animals were pretreated with a subcutaneous injection in the rump region of stannous chloride (SnCl2) in a saline diluent at a dose of 0.15 mg per kilogram (0.00066 millimoles per kilogram), sixteen hours prior to aortic occlusion.

Results on one molecule are retold here after US20010021394A1, “Induction of a cellular stress response with heavy metal salts” (priority 1996, published 2001).

`[Cl][Sn][Cl]` [SnCl2, stannous chloride] returned a Renal vascular resistance with warm renal ischemia of 45 resistance units. The “Neurological function of the lower extremities” value in the experiment with spinal cord ischemia is given as “all four animals pretreated with SnCl2 had normal neurologic function”.
